Patent EP1247803A2, “Indolinone compounds suitable for modulation of protein kinases” (Sugen, Inc., priority 1996, dated 1998)

Experiments:
EGFR = target: T1, EGFR (Homo sapiens, UniProt P00533); experiment: EGFR ELISA assay (in vitro kinase activity, EGFR captured from A431 cell lysate); type: biochemical; set-up: concentration or dose not given beside the values
T1 construct: Add 7 ug A431 cell lysate per well (EGFR source); endogenous in cells; host or cells: A431
Procedure, shortened: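 EGFR from A431 lysate was captured on plates coated with anti-EGFR antibody. Compounds were added 30 min before a 5 min phosphorylation with 3 µM ATP/5 mM MnCl2, which was stopped with 20 mM EDTA. Phosphotyrosine was detected with rabbit anti-phosphotyrosine, then a peroxidase-conjugated secondary and ABTS/H2O2, read at 410 nm.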

MET = MET biochemical kinase assay; set-up: species or system human; concentration or dose not given beside the values
Procedure, shortened: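 MET from cell lysates captured on ELISA plates via rabbit anti-MET cytoplasmic-domain antibody; compounds added and kinase reaction run in ATP and divalent-metal buffer. Receptor phosphotyrosine detected with HRP-conjugated anti-phosphotyrosine antibody and TMB colorimetry.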

T1 sequence (P00533 25-1210): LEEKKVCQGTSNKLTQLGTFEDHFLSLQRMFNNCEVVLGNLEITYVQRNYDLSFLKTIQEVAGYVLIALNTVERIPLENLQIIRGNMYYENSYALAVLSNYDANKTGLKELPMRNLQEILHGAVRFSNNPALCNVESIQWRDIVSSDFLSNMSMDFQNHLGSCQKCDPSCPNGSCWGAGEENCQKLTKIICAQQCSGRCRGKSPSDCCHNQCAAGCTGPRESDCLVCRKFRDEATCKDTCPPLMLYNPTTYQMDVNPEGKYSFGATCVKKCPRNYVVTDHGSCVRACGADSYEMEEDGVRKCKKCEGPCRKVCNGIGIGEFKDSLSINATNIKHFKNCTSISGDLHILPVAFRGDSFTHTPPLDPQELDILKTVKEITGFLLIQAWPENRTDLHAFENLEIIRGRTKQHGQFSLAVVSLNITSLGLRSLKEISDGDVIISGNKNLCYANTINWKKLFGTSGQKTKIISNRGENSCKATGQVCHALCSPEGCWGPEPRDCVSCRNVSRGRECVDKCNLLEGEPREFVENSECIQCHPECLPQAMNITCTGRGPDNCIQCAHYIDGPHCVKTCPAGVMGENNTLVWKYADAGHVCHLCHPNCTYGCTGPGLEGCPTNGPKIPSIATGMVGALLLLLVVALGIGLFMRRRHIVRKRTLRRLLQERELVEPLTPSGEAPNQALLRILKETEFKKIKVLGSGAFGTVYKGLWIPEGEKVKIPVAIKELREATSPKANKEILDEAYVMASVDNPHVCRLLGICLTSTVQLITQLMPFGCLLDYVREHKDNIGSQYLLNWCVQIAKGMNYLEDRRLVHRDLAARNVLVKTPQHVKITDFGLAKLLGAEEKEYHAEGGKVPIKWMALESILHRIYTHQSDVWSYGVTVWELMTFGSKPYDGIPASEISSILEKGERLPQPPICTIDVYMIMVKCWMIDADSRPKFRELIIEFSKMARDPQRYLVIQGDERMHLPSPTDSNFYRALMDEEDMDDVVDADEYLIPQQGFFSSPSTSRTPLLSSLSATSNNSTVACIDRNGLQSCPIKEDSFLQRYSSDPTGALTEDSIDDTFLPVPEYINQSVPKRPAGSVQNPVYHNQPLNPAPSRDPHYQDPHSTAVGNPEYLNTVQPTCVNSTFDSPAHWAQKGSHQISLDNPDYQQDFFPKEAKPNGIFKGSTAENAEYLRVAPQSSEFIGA

Row | Structure (SMILES) | Biochem EGFR %Inhibition (EGFR) [%] | Met Kinase % Inhibition (MET) [%]
1 | COc1cc(O)ccc1C=C1C(=O)Nc2ccc(S(=O)(=O)Nc3ccc(C(F)(F)F)cc3)cc21 [10720/E03] | 54.4 | 54.9
2 | O=C1Nc2ccc(S(=O)(=O)Nc3ccc(C(F)(F)F)cc3)cc2C1=Cc1ncc[nH]1 [10720/E11] | -65.5 | -10.4
3 | Cc1cc(C)c(C=C2C(=O)Nc3ccc(I)cc32)[nH]1 [10721/B08] | 64.0 | 64.5
4 | CNS(=O)(=O)c1ccc2c(c1)C(=Cc1cc3c([nH]1)CCCC3)C(=O)N2 [10721/D05] | 47.0 | 91.9
5 | CNS(=O)(=O)c1ccc2c(c1)C(=Cc1ccccc1O)C(=O)N2 [10720/D05] | -24.1 | 9.8
6 | CCOc1cc(C=C2C(=O)Nc3ccc(S(=O)(=O)NC)cc32)ccc1O [10720/D09] | 2.4 | 62.8
7 | CNS(=O)(=O)c1ccc2c(c1)C(=Cc1ccc(O)c(C(C)(C)C)c1)C(=O)N2 [10721/D09] | 15.3 | -4.9
8 | Cc1c(Br)ccc2c1C(=Cc1ccc(O)c(C(C)(C)C)c1)C(=O)N2 [10721/C09] | 39.8 | -4.7
9 | CNS(=O)(=O)c1ccc2c(c1)C(=Cc1nc3ccccc3n1C)C(=O)N2 [10721/D02] | 21.5 | 22.5
10 | Cc1cc(C=C2C(=O)Nc3ccc(Br)c(C)c32)sc1C [10721/C04] | 77.7 | 88.7
11 | CC(C)(C)c1cc(C=C2C(=O)Nc3c(Br)cc(Br)cc32)cc(C(C)(C)C)c1O [10721/A11] | 24.6 | 23.9
12 | Cc1c(Br)ccc2c1C(=Cc1cc(Br)c(O)c(C(C)(C)C)c1)C(=O)N2 [10721/C10] | 17.4 | 44.6
13 | CC(C)(C)c1cc(C=C2C(=O)Nc3ccc(I)cc32)cc(Br)c1O [10721/B10] | 42.9 | 30.4
14 | CNS(=O)(=O)c1ccc2c(c1)C(=Cc1cc([N+](=O)[O-])cc(CCl)c1O)C(=O)N2 [10721/D06] | 44.5 | 9.0
15 | O=C1Nc2c(Br)cc(Br)cc2C1=Cc1cc([N+](=O)[O-])cc(CCl)c1O [10721/A06] | 32.7 | 81.3
16 | CNS(=O)(=O)c1ccc2c(c1)C(=Cc1ccc(SC)s1)C(=O)N2 [10720/D07] | 14.8 | 36.2
17 | Cc1cc(C)c(C=C2C(=O)Nc3ccc(Br)c(C)c32)[nH]1 [10721/C08] | 38.3 | 24.8
18 | Cc1cc(C=C2C(=O)Nc3c(Br)cc(Br)cc32)sc1C [10721/A04] | 59.0 | 85.0
19 | COc1cccc(O)c1C=C1C(=O)Nc2ccc(Br)c(C)c21 [10717/C10] | 17.5 | 22.8
20 | COc1ccc(O)c(C=C2C(=O)Nc3ccc(S(=O)(=O)N4CCOCC4)cc32)c1 [10720/F10] | 6.0 | 42.8
